From patent publication US10696692B2, “Amido-benzyl sulfone and sulfoxide derivates” (Forma TM, LLC, priority 2012, dated 2020) come the findings set out here.

For one assay, the system named is A2780 cells. As to the kind of experiment: Assay 2: In-Vitro Cell Proliferation Assay (A2780 cells, SRB readout, 72 hours).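 Further: viable cells counted via sulforhodamine B staining, absorbance at 570 nm, after 72 h exposure at 37 °C, DMSO 0.1% as control, media-only background subtracted.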 Type of assay: cell-based. To be noted: Homo sapiens, A2780, 72 h, A2780 cells, 72 hours, SRB; read-out: Cell Proliferation (IC50).
A further assay concerns the target NAMPT (Homo sapiens (Human), UniProt P43490). As to the kind of experiment: Assay 1: Biochemical Inhibition Assay (NAMPT enzymatic reaction, NMN quantified by mass spectrometry).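 Further: recombinant His-tagged human NAMPT preincubated with compound 15 min, then reacted 30 min at rt with 1 µM NAM, 100 µM PRPP, 2.5 mM ATP, NMN product read by RapidFire MS, normalized to L-Cystathionine internal standard.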 To be noted: read-out: Biochemical (IC50).

Chain of NAMPT (P43490 whole entry): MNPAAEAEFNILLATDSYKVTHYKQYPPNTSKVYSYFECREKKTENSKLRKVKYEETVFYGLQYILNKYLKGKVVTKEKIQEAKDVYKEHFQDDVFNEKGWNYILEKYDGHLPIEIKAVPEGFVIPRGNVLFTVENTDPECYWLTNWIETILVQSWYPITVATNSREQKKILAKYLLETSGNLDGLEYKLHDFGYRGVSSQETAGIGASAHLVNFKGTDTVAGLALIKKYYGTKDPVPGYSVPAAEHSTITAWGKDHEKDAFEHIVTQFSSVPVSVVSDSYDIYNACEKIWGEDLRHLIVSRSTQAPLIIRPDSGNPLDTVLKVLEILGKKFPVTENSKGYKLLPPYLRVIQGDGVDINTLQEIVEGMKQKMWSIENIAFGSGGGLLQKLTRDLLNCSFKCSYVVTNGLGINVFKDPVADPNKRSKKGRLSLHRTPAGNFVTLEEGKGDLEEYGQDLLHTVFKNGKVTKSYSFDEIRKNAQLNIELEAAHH

For the compound `O=C(NCc1ccc(S(=O)(=O)N2CCC3(CCCO3)C2)cc1)c1cnc2[nH]ncc2c1` (stereo not drawn) [Example 284, N-[[4-(1-oxa-7-azaspiro[4.4]nonan-7-ylsulfonyl)phenyl]methyl]-1H-pyrazolo[3,4-b]pyridine-5-carboxamide], the IC50 is 0.0429 µM in the assay on A2780 cells and 0.0709 µM at NAMPT.
For `O=C(NCc1ccc(S(=O)(=O)N2CCC23COC3)cc1)c1cnc2[nH]ncc2c1` [Example 285, N-[[4-(6-oxa-1-azaspiro[3.3]heptan-1-ylsulfonyl)phenyl]methyl]-1H-pyrazolo[3,4-b]pyridine-5-carboxamide], in that order: 2 µM and 0.206 µM.
Taken in the same sequence, the figures for `C[C@@H]1CN(S(=O)(=O)c2ccc(CNC(=O)c3cc4ccncc4o3)cc2)C[C@H](C)N1C1COC1` [Example 286, N-[[4-[(3S,5R)-3,5-dimethyl-4-(oxetan-3-yl)piperazin-1-yl]sulfonylphenyl]methyl]furo [2,3-c]pyridine-2-carboxamide] were 0.000488 µM and 0.0145 µM.
For the compound `O=C(NCc1ccc(S(=O)(=O)N2CC3CCC(F)(F)C3C2)cc1)c1cc2ccncc2o1` (stereo not drawn) [Example 296, N-[[4-[(4,4-difluoro-1,3,3a,5,6,6a-hexahydrocyclopenta[c]pyrrol-2-yl)sulfonyl]phenyl]methyl]furo [2,3-c]pyridine-2-carboxamide], the figures for the IC50 in the assay with A2780 cells and at NAMPT were 0.0101 µM and 0.00984 µM, respectively.
For `O=C(NCc1ccc(S(=O)(=O)N2CC3CC(F)(F)CC3C2)cc1)c1cc2ccncc2o1` (stereo not drawn) [Example 297, N-[[4-[(5,5-difluoro-1,3,3a,4,6,6a-hexahydrocyclopenta[c]pyrrol-2-yl)sulfonyl]phenyl]methyl]furo [2,3-c]pyridine-2-carboxamide], in that order: 0.0512 µM and 0.0166 µM.
Taken in the same sequence, the figures for `COCCN1CCN(S(=O)(=O)c2ccc(CNC(=O)c3cc4ccncc4o3)cc2)CC1` [Example 298, N-[[4-[4-(2-methoxyethyl)piperazin-1-yl]sulfonylphenyl]methyl]furo [2,3-c]pyridine-2-carboxamide] were 0.0246 µM and 0.0906 µM.
For `O=C(NCc1ccc(S(=O)(=O)N2CCC(CO)CC2)cc1)c1cc2ccncc2o1` [Example 299, N-[[4-[[4-(hydroxymethyl)-1-piperidyl]sulfonyl]phenyl]methyl]furo[2,3-c]pyridine-2-carboxamide], in that order: 0.0111 µM and 0.0244 µM.
Turning to `O=C(NCc1ccc(S(=O)(=O)N2CCC(F)(F)C2)cc1)c1cc2ccncc2o1` [Example 300, N-[[4-(3,3-difluoropyrrolidin-1-yl)sulfonylphenyl]methyl]furo [2,3-c]pyridine-2-carboxamide], the IC50 came out at 0.0215 µM in the assay on A2780 cells and 0.0214 µM at NAMPT.
Regarding `O=C(NCc1ccc(S(=O)(=O)N2CC(F)(F)C2)cc1)c1cc2ccncc2o1` [Example 301, N-[[4-(3,3-difluoroazetidin-1-yl)sulfonylphenyl]methyl]furo [2,3-c]pyridine-2-carboxamide], the IC50 in the assay with A2780 cells was found to be 0.0836 µM; on NAMPT, 0.0467 µM.
For the compound `O=C(NCc1ccc(S(=O)(=O)N2CC3CCOC3C2)cc1)c1cc2ccncc2o1` (stereo not drawn) [Example 302, N-[[4-(2,3,3a,4,6,6a-hexahydrofuro[2,3-c]pyrrol-5-ylsulfonyl)phenyl]methyl]furo [2,3-c]pyridine-2-carboxamide], the IC50 is 0.0271 µM in the assay on A2780 cells and 0.0418 µM on NAMPT.
`O=C(NCc1ccc(S(=O)(=O)N2CCC3(CCCO3)C2)cc1)c1cc2ccncc2o1` (stereo not drawn) [Example 303, N-[[4-(1-oxa-7-azaspiro[4.4]nonan-7-ylsulfonyl)phenyl]methyl]furo [2.3-c]pyridine-2-carboxamide]: the IC50 is 0.0154 µM in the assay on A2780 cells and 0.0227 µM on NAMPT.
For `O=C(NCc1ccc(S(=O)(=O)N2CC3CC2CO3)cc1)c1cc2ccncc2o1` (stereo not drawn) [Example 304, N-[[4-(2-oxa-5-azabicyclo[2.2.1]heptan-5-ylsulfonyl)phenyl]methyl]furo [2,3-c]pyridine-2-carboxamide], the IC50 in the assay with A2780 cells worked out at 0.0419 µM; at NAMPT, 0.0652 µM.
